Key:
Type in all cases: in vivo
Set-up in all cases: scale not given here
Amaranthus viridis L. [1] = assay: Herbicidal effects in upland field soil treatment (Test Example 2); settings: 1000 g active ingredient per hectare, 21st day after treatment, criteria of Table 138
In short: (§1)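 Pre-emergence soil application: seeds sown in upland field soil, covered, then wettable powder diluted in water sprayed on the soil surface at 1000 g active ingredient/ha in 1000 L/ha. Plants grown in greenhouse; herbicidal effect scored on a rating scale 21 days after treatment.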

[2] = tested on: Abutilon theophrasti medicus; assay: as above; settings: 1000 g active ingredient per hectare, 21st day after treatment, criteria of Table 138
In short: as §1

[3] = tested on: Echinochloa oryzicola Vasing; assay: Herbicidal effects in paddy field soil treatment (Test Example 1); settings: for Herbicidal effects index, Echinochloa oryzicola Vasing: paddy field soil treatment, 1000 g of the active ingredient per hectare, wettable powder added dropwise on water surface, 21st day after treatment
In short: (§2)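 Weed seeds were sown into puddled, leveled paddy soil in pots and flooded to 3 cm water depth. One day later the diluted wettable powder formulation was dropped onto the water surface at 1000 g active ingredient per hectare. Herbicidal effect was scored on day 21 after greenhouse growth.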

[4] = tested on: Monochoria vaginalis (Burm. f.) Presl var. plantaginea (Roxb.) Solms-Laub.; assay: as above; settings: for Herbicidal effects index, Monochoria vaginalis (Burm. f.) Presl var. plantaginea (Roxb.) Solms-Laub.: paddy field soil treatment, 1000 g of the active ingredient per hectare, wettable powder added dropwise on water surface, 21st day after treatment
In short: as §2

[5] = tested on: Scirpus juncoides Roxb. var. ohwianus. T. Koyama; assay: as above; settings: for Herbicidal effects index, Scirpus juncoides Roxb. var. ohwianus. T. Koyama: paddy field soil treatment, 1000 g of the active ingredient per hectare, wettable powder added dropwise on water surface, 21st day after treatment
In short: as §2

Amaranthus viridis L. [6] = assay: Herbicidal effects in upland field foliar treatment (Test Example 3); settings: criteria of Table 138; for herbicidal effects on Amaranthus viridis L.: 1000 g of the active ingredient per hectare, 14th day after the treatment, wettable powder; for herbicidal effect (index) on Amaranthus viridis L.: 1000 g active ingredient per hectare, 14th day after treatment
In short: (§3)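 Weeds were sown in upland field soil and grown two weeks in a greenhouse before a foliar spray over the whole plant. Wettable powder was diluted in water and applied at 1000 L/ha, delivering 1000 g active ingredient/ha. Herbicidal effect was scored against set rating criteria 14 days after treatment.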

[7] = tested on: Abutilon theophrasti medicus; assay: as above; settings: criteria of Table 138; for herbicidal effects on Abutilon theophrasti medicus: 1000 g of the active ingredient per hectare, 14th day after the treatment, wettable powder; for herbicidal effect (index) on Abutilon theophrasti medicus: 1000 g active ingredient per hectare, 14th day after treatment
In short: as §3

[8] = tested on: Echinochloa crus-galli (L.) P. Beauv. var. crus-galli; assay: as above; settings: criteria of Table 138; for herbicidal effects on Echinochloa crus-galli (L.) P. Beauv. var. crus-galli: 1000 g of the active ingredient per hectare, 14th day after the treatment, wettable powder; for herbicidal effect (index) on Echinochloa crus-galli (L.) P. Beauv. var. crus-galli: 1000 g active ingredient per hectare, 14th day after treatment
In short: as §3

[9] = paddy field soil treatment (Test Example 1), criteria of Table 138

SMILES	herbicidal effect (index) on Amaranthus viridis L. (Amaranthus viridis L. [1])	herbicidal effect (index) on Abutilon theophrasti medicus [2]	herbicidal effect (index) on Echinochloa oryzicola Vasing [3, 9]	herbicidal effect (index) on Monochoria vaginalis (Burm. f.) Presl var. plantaginea (Roxb.) Solms-Laub. [4, 9]	herbicidal effect (index) on Scirpus juncoides Roxb. var. ohwianus. T. Koyama [5, 9]	herbicidal effects on Amaranthus viridis L. (Amaranthus viridis L. [6])	herbicidal effects on Abutilon theophrasti medicus [7]	herbicidal effects on Echinochloa crus-galli (L.) P. Beauv. var. crus-galli [8]	Herbicidal effects index, Echinochloa oryzicola Vasing [3]	Herbicidal effects index, Monochoria vaginalis (Burm. f.) Presl var. plantaginea (Roxb.) Solms-Laub. [4]	Herbicidal effects index, Scirpus juncoides Roxb. var. ohwianus. T. Koyama [5]	herbicidal effect (index) on Amaranthus viridis L. (Amaranthus viridis L. [6])	herbicidal effect (index) on Abutilon theophrasti medicus [7]	herbicidal effect (index) on Echinochloa crus-galli (L.) P. Beauv. var. crus-galli [8]
O=C1CCCC(O)=C1C(=O)c1ccc2ccccc2n1 [comparative compound B, reference compound]	2	2	0	0	0	1	5	0	–	–	–	–	–	–
Cc1csc(-n2c(=O)c(C(=O)C3=C(O)CCCC3=O)nc3ccccc32)n1 [I-160]	5	5	–	–	–	–	–	–	5	5	5	5	5	5
Cc1ccnc(-n2c(=O)c(C(=O)C3=C(O)CCCC3=O)nc3ccccc32)c1 [I-182]	5	5	–	–	–	–	–	–	5	5	5	5	5	5
COc1ccccc1Cn1c(=O)c(C(=O)C2=C(O)CCCC2=O)nc2cccnc21 [III-120]	5	4	–	–	–	5	5	5	5	5	5	–	–	–
Cc1cc(-n2c(=O)c(C(=O)C3=C(O)CCCC3=O)nc3ccccc32)nn1C [I-266]	5	5	–	–	–	–	–	–	5	5	5	5	5	5
O=C1CCCC(O)=C1C(=O)c1nc2ccccc2n(-c2ccc3c(c2)CCO3)c1=O [I-201]	5	4	–	–	–	–	–	–	5	5	5	5	4	5
C=CCn1c(=O)c(C(=O)C2=C(O)CCCC2=O)nc2ccccc21 [Compound I-30]	5	5	–	–	–	–	–	–	5	5	5	5	5	4
O=C1CCCC(O)=C1C(=O)c1nc2ccccc2n(-c2ccc(OCC3CC3)cc2)c1=O [II-208]	5	5	–	–	–	5	5	4	5	5	5	–	–	–
CCOc1ccc(-n2c(=O)c(C(=O)C3=C(O)CCCC3=O)nc3ccccc32)cc1 [II-69]	5	4	–	–	–	5	5	5	5	5	5	–	–	–
O=C1CCCC(O)=C1C(=O)c1nc2ccccc2n(-c2ccc(F)cn2)c1=O [I-176]	5	5	–	–	–	–	–	–	5	5	5	5	5	5
Cc1cccc(-n2c(=O)c(C(=O)C3=C(O)CCCC3=O)nc3ccccc32)n1 [I-173, 3-(2-hydroxy-6-oxo-1-cyclohexenecarbonyl)-1-(6-methyl-2-pyridyl)-quinoxalin-2 (1H)-one]	5	5	–	–	–	–	–	–	5	5	5	5	5	5
O=C1CCCC(O)=C1C(=O)c1nc2ccccc2n(-c2ccsc2)c1=O [I-139]	5	5	–	–	–	–	–	–	5	5	5	5	5	4
COc1c(Cl)cc(-n2c(=O)c(C(=O)C3=C(O)CCCC3=O)nc3ccccc32)cc1Cl [II-221]	5	4	–	–	–	5	5	5	4	5	5	–	–	–
O=C1CCCC(O)=C1C(=O)c1nc2ccccc2n(-c2cccnc2)c1=O [I-185]	5	5	–	–	–	–	–	–	5	5	5	5	5	5
Cc1ccc(-n2c(=O)c(C(=O)C3=C(O)CCCC3=O)nc3ccccc32)c(Cl)c1 [II-215]	5	5	–	–	–	5	5	5	5	5	5	–	–	–
Cn1c(=O)c(C(=O)C2=C(O)CCCC2=O)nc2cc(F)ccc21 [I-220]	5	5	–	–	–	–	–	–	5	5	5	5	5	5
CC(C)Oc1ccc(-n2c(=O)c(C(=O)C3=C(O)CCCC3=O)nc3ccccc32)cc1 [II-75]	5	4	–	–	–	5	4	5	5	5	5	–	–	–
